# Laboratory results: patent US9784740B2 (priority 2013, dated 2017)
# pEC50: −log10 of the molar value. Where “and” joins values, the source holds several entries; their conditions need not be identical. Identical values can stand only once. Entries after “also recorded” stand apart in the source; their conditions may differ. Like-named read-outs stand apart in the source and are kept apart here.
# Tests used:
# [1] = molecular target: T1, mu-opioid receptor (OPRM1) (Homo sapiens, UniProt P35372)
# T1 sequence (P35372 whole entry): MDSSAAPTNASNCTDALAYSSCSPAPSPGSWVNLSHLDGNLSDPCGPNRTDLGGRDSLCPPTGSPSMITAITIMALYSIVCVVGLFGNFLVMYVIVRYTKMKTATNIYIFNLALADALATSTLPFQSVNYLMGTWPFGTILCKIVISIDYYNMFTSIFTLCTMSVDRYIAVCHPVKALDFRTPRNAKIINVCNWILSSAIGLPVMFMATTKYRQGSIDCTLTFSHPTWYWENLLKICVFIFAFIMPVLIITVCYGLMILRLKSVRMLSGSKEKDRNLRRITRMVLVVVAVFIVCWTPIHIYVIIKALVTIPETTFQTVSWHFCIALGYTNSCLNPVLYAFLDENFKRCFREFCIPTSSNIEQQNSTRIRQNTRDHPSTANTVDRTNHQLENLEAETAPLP
# [2] = molecular target: T1, mu-opioid receptor (OPRM1); experiment: β-arrestin recruitment assay (PathHunter) in U2OS-OPRM1 cells; conditions: for Description (PAM efficacy class / SAM): U2OS-OPRM1, β-arrestin PAM and SAM detection modes; for β-arrestin recruitment, agonist detection mode (compound alone): U2OS-OPRM1 cells, no orthosteric agonist
# [3] = molecular target: T2, delta opioid receptor (OPRD1) (Homo sapiens, UniProt P41143); experiment: β-arrestin recruitment assay (PathHunter) in U2OS-OPRD1 cells; assay type: cell-based; conditions: for β-arrestin recruitment, agonist detection mode: U2OS-OPRD1, no leu-enkephalin; for β-arrestin recruitment, PAM detection mode: U2OS-OPRD1, ~EC10 (0.4 nM) leu-enkephalin
# T2 construct: host or cells: U2OS (PathHunter U2OS-OPRD1)
# T2 sequence (P41143 whole entry): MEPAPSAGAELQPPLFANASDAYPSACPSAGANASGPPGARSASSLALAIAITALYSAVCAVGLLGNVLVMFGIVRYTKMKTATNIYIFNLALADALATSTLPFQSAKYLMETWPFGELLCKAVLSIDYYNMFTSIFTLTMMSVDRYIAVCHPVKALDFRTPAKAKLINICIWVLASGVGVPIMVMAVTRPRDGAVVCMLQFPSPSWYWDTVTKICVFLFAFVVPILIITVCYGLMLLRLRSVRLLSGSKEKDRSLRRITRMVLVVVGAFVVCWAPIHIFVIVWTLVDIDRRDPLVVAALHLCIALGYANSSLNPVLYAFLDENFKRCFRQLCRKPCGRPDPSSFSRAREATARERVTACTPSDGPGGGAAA
# [4] = molecular target: T3, mu-opioid receptor (C6mu membranes) (Rattus norvegicus, UniProt P33535); experiment: [35S]GTPγS binding in C6mu cell membranes; assay type: biochemical; conditions: for agonist activity of modulator in [35S]GTPγS binding: modulator alone
# T3 construct: expressed in transfected cells; host or cells: C6 glioma cells (membranes)
# T3 sequence (P33535 whole entry): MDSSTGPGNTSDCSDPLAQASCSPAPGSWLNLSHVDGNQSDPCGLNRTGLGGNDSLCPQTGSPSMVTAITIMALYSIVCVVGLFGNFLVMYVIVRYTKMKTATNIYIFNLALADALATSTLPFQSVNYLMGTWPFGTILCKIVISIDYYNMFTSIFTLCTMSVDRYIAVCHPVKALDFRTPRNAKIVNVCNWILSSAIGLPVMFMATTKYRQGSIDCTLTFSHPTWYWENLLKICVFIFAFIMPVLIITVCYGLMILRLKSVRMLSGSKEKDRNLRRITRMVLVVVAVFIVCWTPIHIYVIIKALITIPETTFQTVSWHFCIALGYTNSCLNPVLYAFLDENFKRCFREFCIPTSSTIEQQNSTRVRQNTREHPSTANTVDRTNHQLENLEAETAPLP
# [5] = molecular target: T1, mu-opioid receptor (OPRM1); experiment: cell-based
# [6] = molecular target: T4, human mu opioid receptors (Homo sapiens, UniProt P35372)
# T4 sequence (P35372 whole entry): as the sequence (P35372 whole entry) above
# [7] = molecular target: T4, human mu opioid receptors; experiment: Inhibition of forskolin-stimulated cAMP accumulation in CHO-mu cells; conditions: for pEC50: mean (95% CI)
# [8] = molecular target: T5, mu-opioid receptor (mouse brain membranes) (Mus musculus, UniProt P42866); experiment: [35S]GTPγS binding in mouse brain membranes; assay type: biochemical
# T5 construct: membranes from a physiologically relevant tissue with endogenous levels of receptor and G-protein; from tissue; host or cells: mouse whole brain minus cerebellum, membrane homogenate
# T5 sequence (P42866 whole entry): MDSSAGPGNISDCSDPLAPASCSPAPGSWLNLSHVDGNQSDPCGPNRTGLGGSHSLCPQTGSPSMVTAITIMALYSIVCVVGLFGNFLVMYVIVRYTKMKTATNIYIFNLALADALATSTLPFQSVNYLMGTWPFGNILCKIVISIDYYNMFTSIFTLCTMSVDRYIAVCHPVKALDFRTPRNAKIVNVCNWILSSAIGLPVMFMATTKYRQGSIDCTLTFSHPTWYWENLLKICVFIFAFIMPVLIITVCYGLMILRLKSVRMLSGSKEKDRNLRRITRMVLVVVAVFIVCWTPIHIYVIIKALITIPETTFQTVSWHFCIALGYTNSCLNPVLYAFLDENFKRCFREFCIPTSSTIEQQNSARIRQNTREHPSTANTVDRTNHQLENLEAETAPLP
# [9] = molecular target: T3, mu-opioid receptor (C6mu membranes); assay type: binding
# [10] = molecular target: T3, mu-opioid receptor (C6mu membranes); experiment: DAMGO competition binding with [3H]diprenorphine in C6mu membranes; conditions: 10 uM modulator
# [11] = molecular target: T4, human mu opioid receptors; experiment: cell-based
# [12] = C6mu membranes, 10 uM modulator
molecule,measurement,setting,value
COc1ccc(C2SCCN2S(=O)(=O)c2ccc(Br)cc2)cc1OC (racemic) [Analog 8],pEC50,[1],4.85
same,Description (PAM efficacy class / SAM),[2],Weak PAM
COc1cc(Br)ccc1C1SCCN1S(=O)(=O)c1ccc(Cl)cc1 (racemic) [BMS-986124],"β-arrestin recruitment, agonist detection mode",[3],no activity
same,"β-arrestin recruitment, PAM detection mode",[3],no activity
same,effect on DAMGO potency in [35S]GTPγS assay,[4]; [12],not significantly increased
same,effect on morphine Emax in [35S]GTPγS assay,[4]; [12],increased morphine Emax to a small degree
same,effect on morphine potency in [35S]GTPγS assay,[4]; [12],not significantly increased
same,effect on DAMGO-stimulated [35S]GTPγS binding potency,"[4]; C6mu membranes, 50 uM BMS-986124 alone",not affected
same,agonist activity of modulator in [35S]GTPγS binding,[4]; C6mu membranes,No significant agonist activity was detected
same,antagonist/NAM detection mode: effect on EC80 endomorphin-I response,"[2]; U2OS-OPRM1, 300 nM endomorphin-I",no significant effect; also recorded: Neither compound significantly inhibited; also recorded: no NAM/antagonist activity
same,SAM detection mode: inhibition of BMS-986122 PAM response,"[2]; U2OS-OPRM1, 12.5 uM (~EC80) BMS-986122 plus 30 nM (~EC20) endomorphin-I",able to inhibit the PAM response; also recorded: inhibited PAM responses
same,Description (PAM efficacy class / SAM),[2],SAM
same,"β-arrestin recruitment, agonist detection mode (compound alone)",[2],no activity
same,Kb,"[2]; read-out: β-arrestin SAM Detection Mode (Kb), U2OS-OPRM1, inhibition of BMS-986122 (~EC80) response with ~EC20 endomorphin-I, Kb calculated from IC50",2 µM
COc1ccc(C2SCCN2S(=O)(=O)c2ccc([N+](=O)[O-])cc2)cc1Br (stereo not drawn) [Analog 1],pEC50,[5],5.70
same,Description (PAM efficacy class / SAM),[2],Moderate PAM
COc1ccc(C2SCCN2S(=O)(=O)c2ccc(C)cc2)cc1Br (stereo not drawn) [Analog 2],pEC50,[5],5.40
same,Description (PAM efficacy class / SAM),[2],Weak PAM
COc1ccc(S(=O)(=O)N2CCSC2c2ccc(OC)c(Br)c2)cc1 (stereo not drawn) [Analog 3],pEC50,[5],5.22
same,Description (PAM efficacy class / SAM),[2],Weak PAM
COc1ccc(C2SCCN2S(=O)(=O)c2cccc(C)c2)cc1Br (stereo not drawn) [Analog 4],pEC50,[5],5.05
same,Description (PAM efficacy class / SAM),[2],Weak PAM
COc1ccc(C2SCCN2S(=O)(=O)c2ccc(Cl)cc2)cc1[N+](=O)[O-] (stereo not drawn) [Analog 5],pEC50,[5],5.40
same,Description (PAM efficacy class / SAM),[2],Moderate PAM
COc1ccc(C2SCCN2S(=O)(=O)c2ccc(Br)cc2)cc1[N+](=O)[O-] (stereo not drawn) [Analog 6],pEC50,[5],5.70
same,Description (PAM efficacy class / SAM),[2],Moderate PAM
COc1ccc(C2SCCN2S(=O)(=O)c2ccc(Br)cc2)cc1 (stereo not drawn) [Analog 9],pEC50,[5],5.15
same,Description (PAM efficacy class / SAM),[2],Moderate PAM
COc1ccc(C2SCCN2S(=O)(=O)c2ccccc2)cc1 (stereo not drawn) [Analog 10],pEC50,[5],4.64
same,Description (PAM efficacy class / SAM),[2],Weak PAM
O=S(=O)(c1ccc(Cl)cc1)N1CCSC1c1cccc(Cl)c1 (stereo not drawn) [Analog 11],pEC50,[5],5.30
same,Description (PAM efficacy class / SAM),[2],Strong PAM
O=S(=O)(c1ccc(Cl)cc1)N1CCSC1c1ccc(Br)cc1 (stereo not drawn) [Analog 12],pEC50,[5],5.22
same,Description (PAM efficacy class / SAM),[2],Weak PAM
COc1ccc(S(=O)(=O)N2CCSC2c2ccc(Br)cc2)cc1 (stereo not drawn) [Analog 14],pEC50,[5],5.15
same,Description (PAM efficacy class / SAM),[2],Weak PAM
COc1ccc(C2SCCN2S(=O)(=O)c2ccc(OC)cc2)cc1 (stereo not drawn) [Analog 15],pEC50,[5],4.43
same,Description (PAM efficacy class / SAM),[2],Weak PAM
O=[N+]([O-])c1ccc(-c2csc(=Nc3c(Cl)cccc3Cl)[nH]2)cc1 [BMS-986121],"β-arrestin recruitment, agonist detection mode",[3],Neither compound had any significant effect
same,"β-arrestin recruitment, PAM detection mode",[3],Neither compound had any significant effect
same,effect of modulator on maximal stimulation by DAMGO,[4]; [12],not affected
same,increase in morphine potency,[4]; [12],2.5 fold
same,leftward shift in DAMGO CRC (potency),[4]; [12],4 fold
same,agonist activity of modulator in [35S]GTPγS binding,[4]; C6mu membranes,No significant agonist activity was detected
same,pEC50,[1],6.00 and 5.77
same,Emax,[1],72%
same,pEC50,[6],5.66
same,"β-arrestin recruitment, agonist detection mode (compound alone)",[2],Neither BMS-986121 nor BMS-986122 produced significant β-arrestin recruitment on their own
same,leftward shift in potency of endomorphin-I,"[7]; CHO-mu, 100 uM modulator",4 fold and 4.3 fold
same,leftward shift in potency of leu-enkephalin,"[7]; CHO-mu, 100 uM modulator",4.5 fold
same,leftward shift in potency of morphine,"[7]; CHO-mu, 100 uM modulator",6.5 fold
same,Emax of agonist activity (agonist detection mode),"[7]; CHO-mu, no orthosteric agonist, 100% = 10 nM endomorphin-I",35 (6-63) %
same,pEC50,"[7]; read-out: EC50 of agonist activity (agonist detection mode), CHO-mu, no orthosteric agonist",4.85
COc1ccc(C2SCCN2S(=O)(=O)c2ccc(Cl)cc2)cc1Br (stereo not drawn) [BMS-986122],"β-arrestin recruitment, agonist detection mode",[3],Neither compound had any significant effect
same,"β-arrestin recruitment, PAM detection mode",[3],Neither compound had any significant effect
same,effect of modulator on maximal stimulation by DAMGO,[4]; [12],not affected
same,increase in morphine potency,[4]; [12],3 fold
same,leftward shift in DAMGO CRC (potency),[4]; [12],8 fold and 7 fold
same,agonist activity of modulator in [35S]GTPγS binding,[4]; C6mu membranes,No significant agonist activity was detected
same,agonist activity of modulator,[8],No agonist activity was observed
same,leftward shift in DAMGO potency,[8]; 10 uM modulator,4.5 fold
same,effect on basal [35S]GTPγS binding,"[8]; 10 uM modulator, basal 4.8±0.4 fmol bound/mg protein",not affected
same,effect on [3H]diprenorphine binding affinity,[9],no significant effect; also recorded: did not affect; also recorded: had no effect
same,increase in the affinity of DAMGO,[10],6 fold
same,Emax,[1],79%
same,pEC50,[5],5.52 and 5.31
same,pEC50,[11],5.05
same,Description (PAM efficacy class / SAM),[2],Full PAM (ref)
same,"β-arrestin recruitment, agonist detection mode (compound alone)",[2],Neither BMS-986121 nor BMS-986122 produced significant β-arrestin recruitment on their own
same,pEC50,"[7]; EC50 of agonist activity (agonist detection mode), CHO-mu, no orthosteric agonist",4.39
same,Emax,[7]; read-out: Emax of agonist activity (agonist detection mode),60%
"C[C@@H](NC(=O)[C@@H](N)Cc1ccc(O)cc1)C(=O)NCC(=O)N(C)[C@@H](Cc1ccccc1)C(=O)NCCO [DAMGO, reference compound]",stimulation of [35S]GTPγS binding above basal activity,"[4]; C6mu membranes, 10 uM DAMGO, 5 min",250%
same,Emax,"[4]; read-out: maximal stimulation by DAMGO, control",232%
endomorphin-I [reference compound],reduction in forskolin-stimulated cAMP accumulation,"[7]; CHO-mu, 1 uM forskolin",17 fold
same,potency in cAMP assay (CHO) relative to arrestin recruitment (U2OS PathHunter),[7]; cAMP inhibition vs β-arrestin recruitment,~1000 fold
